Assay results published in patent US6875761B2 (Eisai Co., Ltd., priority 1997, dated 2005).
Counter-ions that a name gives are not always drawn.

How the values were obtained:
serotonin 2 receptor = target: T1, serotonin 2 receptor (Rattus norvegicus, UniProt P14842); assay: Binding test on [3H] ketanserin, cerebral cortex receptor fraction; set-up: species or system SD rats; settings: 0.3 nM [3H] ketanserin, 37° C. 15 min, read-out: 5HT2
T1 construct: To the receptor fraction of the cerebral cortex were added a test compound and 0.3 nM of [^3H] ketanserin; from tissue; host or cells: rat cerebral cortex membrane fraction
T1 sequence (P14842 whole entry): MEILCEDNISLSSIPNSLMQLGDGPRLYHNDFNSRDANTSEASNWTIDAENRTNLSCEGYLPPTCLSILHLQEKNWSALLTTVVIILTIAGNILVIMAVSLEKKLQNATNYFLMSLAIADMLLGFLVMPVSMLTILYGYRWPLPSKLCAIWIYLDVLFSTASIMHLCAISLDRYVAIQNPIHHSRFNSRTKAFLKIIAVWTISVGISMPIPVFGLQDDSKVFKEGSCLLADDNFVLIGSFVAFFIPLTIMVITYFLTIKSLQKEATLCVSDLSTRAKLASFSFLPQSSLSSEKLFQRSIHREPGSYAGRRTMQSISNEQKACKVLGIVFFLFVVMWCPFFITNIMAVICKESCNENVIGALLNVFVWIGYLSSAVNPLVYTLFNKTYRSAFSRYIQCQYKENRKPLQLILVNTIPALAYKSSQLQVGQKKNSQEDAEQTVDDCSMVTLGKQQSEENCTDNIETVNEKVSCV
Procedure: (§1) Methysergide maleate was dissolved in distilled water before using.
(§2) Use was made of SD rats aged 6 to 8 weeks.
The rats were sacrificed by dcapitation to extirpate the cerebra.
Each mixture was homogenized by using a Teflon glass homogenizer and centrifuged as 1,000× g for 10 min. The supernatant thus obtained was further centrifuged at 20,000× g for 20 min. […] After centrifuging at 20,000× g for 20 min, the obtained precipitate was further suspended and centrifuged twice each in the same manner. […] This receptor fraction was stored at −80° C. until using.
To the receptor fraction of the cerebral cortex were added a test compound and 0.3 nM of [^3H] ketanserin and the resultant mixture was incubated at 37° C. for 15 min. Next, it was filtered through a glass filter with the use of a cell harvester. After washing the glass filter with 50 mM Tris hydrochloride (pH 7.4), the radioactivity of the receptor was measured with a liquid scintillation counter. The binding detected in the presence of 1 μM of methysergide was referred to as the nonspecific binding.
(§3) IC50 was calculated by the probit method, while Ki was determined in accordance with the following formula: Ki=IC50(1+c/Kd) wherein c represents the concentration of the radioisotope-labeled compound, and Kd represents the dissociation constant of the radioisotope-labeled compound with respect to the receptor determined by Scatchard's analysis.

serotonin 1A receptor = target: T2, serotonin 1A receptor (Rattus norvegicus, UniProt P19327); assay: Binding test on [3H] 8-hydroxy-dipropylaminotetralin, hippocampus receptor fraction; set-up: species or system SD rats; settings: rat hippocampus receptor fraction, 0.5 nM [3H] 8-OH-DPAT, room temperature 30 min; read-out: 5HT1
T2 construct: To the receptor fraction of the hippocampus were added a test compound and 0.5 nM of [^3H]; 8-hydroxy-dipropylaminotetralin; from tissue; host or cells: rat hippocampus membrane fraction
T2 sequence (P19327 1-422): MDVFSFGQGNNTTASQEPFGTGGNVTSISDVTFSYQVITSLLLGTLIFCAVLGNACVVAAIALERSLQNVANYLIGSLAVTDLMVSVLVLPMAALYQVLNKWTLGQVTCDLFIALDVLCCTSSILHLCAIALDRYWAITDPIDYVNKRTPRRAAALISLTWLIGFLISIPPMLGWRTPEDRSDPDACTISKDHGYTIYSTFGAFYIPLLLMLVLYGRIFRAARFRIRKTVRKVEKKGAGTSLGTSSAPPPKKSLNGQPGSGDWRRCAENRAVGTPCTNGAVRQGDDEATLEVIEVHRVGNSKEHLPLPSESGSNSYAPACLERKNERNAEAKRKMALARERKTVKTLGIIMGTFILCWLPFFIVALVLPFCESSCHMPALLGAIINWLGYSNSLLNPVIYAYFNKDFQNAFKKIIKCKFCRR
Procedure: (1) Binding test on serotonin 1A, serotonin 2 and α1 adrenalin receptors
The following reagents were employed in this test. • 1) Serotonin binoxalate (5-HT binoxalate, mfd. by Sigma Chemical Co.). • 2) Methysergide maleate (mfd. by RBI).
As radioisotope-labeled compounds, use was made of the following reagents (mfd. by NEN). • 3) [^3H] 8-Hydroxy-dipropylaminotetralin (8-OH-DPAT). • 4) [^3H]
as §1, §2
The rats were sacrificed by dcapitation to extirpate the cerebra. The hippocampus and cortex were separated therefrom and employed in the binding tests respectively on the serotonin 1A receptor and the serotonin 2 receptor.
The hippocampus was mixed with 50 times (on the wet weight basis) as much as 0.32 M sucrose solution while the cortex was mixed with 10 times as much the same solution. Each mixture was homogenized by using a Teflon glass homogenizer and centrifuged as 1,000× g for 10 min. The supernatant thus obtained was further centrifuged at 20,000× g for 20 min. The obtained precipitate was re-suspended in 50 times (based on the initial wet weight; in the case of the hippocampus) or 10 times (in the case of the cortex) as much a 50 Tris hydrochloride (pH 7.4) and incubated at room temperature for 30 min. After centrifuging at 20,000× g for 20 min, the obtained precipitate was further suspended and centrifuged twice each in the same manner. The precipitate thus obtained was suspended in 100 times (based on the initial wet weight; in the case of the hippocampus) or 20 times (in the case of the cortex) as much a 50 mM Tris hydrochloride solution (pH 7.4) to thereby give a receptor fraction. This receptor fraction was stored at −80° C. until using.
To the receptor fraction of the hippocampus were added a test compound and 0.5 nM of [^3H] 8-hydroxy-dipropylaminotetralin and the resultant mixture was incubated at room temperature for 30 min. Next, it was filtered through a glass filter with the use of a cell harvester. After washing the glass filter with 50 mM Tris hydrochloride (pH 7.4), the radioactivity of the receptor was measured with a liquid scintillation counter. The binding detected in the presence of 10 μM of serotonin binoxalate was referred to as the nonspecific binding.
as §3

| Structure (SMILES) | Ki (serotonin 2 receptor) | Ki (serotonin 1A receptor) |
| --- | --- | --- |
| CCN1CCN(c2nc(-c3ccc(CC(C)=O)cc3)cc3ccccc23)CC1 [Example 375, 1-(4-ethylpiperazin-1-yl)-3-[4-(2-oxopropyl)phenyl]isoquinoline dihydrochloride] | 7.6 nM | 30.5 nM |
| CCN1CCN(c2nc(-c3ccc(CC(C)O)cc3)cc3ccccc23)CC1 (stereo not drawn) [Example 376, 1-(4-ethylpiperazin-1-yl)-3-[4-(2-hydroxypropyl)phenyl]isoquinoline oxalate] | 6.3 nM | 19.5 nM |
| CCN1CCN(c2nc(-c3ccc(CC(C)(C)O)cc3)cc3ccccc23)CC1 [Example 377, 1-(4-Ethylpiperazin-1-yl)-3-[4-(2-Hydroxy-2-Methylpropyl)Phenyl]Isoquinoline Oxalate] | 16.5 nM | 28.5 nM |
| CCN1CCN(c2nc(Sc3ccccn3)cc3ccccc23)CC1 [Example 378, 1-(4-Ethylpiperazin-1-yl)-3-(2-Pyridylthio)Isoquinoline Oxalate] | 95.2 nM | 42.7 nM |
| CCC/C(=N\O)c1ccc(-c2cc3ccccc3c(N3CCN(CC)CC3)n2)cc1 [Example 380, 1-(4-Ethylpiperazin-1-yl)-3-[4-(1-Hydroxyiminobutyl)Phenyl]Isoquinoline] | 23 nM | 31.2 nM |
| CCCN(C)C(=O)c1ccc(-c2cc3ccccc3c(N3CCN(CC)CC3)n2)cc1 [Example 381] | 27.3 nM | 11.1 nM |
| CCN1CCN(c2nc(-c3ccc(C(C)CCO)cc3)cc3ccccc23)CC1 (stereo not drawn) [Example 383, 1-(4-Ethylpiperazin-1-yl)-3-[4-(3-Hydroxy-1-Methylpropyl)Phenyl]Isoquinoline Oxalate] | 3.4 nM | 7.4 nM |
| CCCNC(=O)c1ccc(-c2cc3ccccc3c(N3CCN(CC)CC3)n2)cc1F [Example 384, 1-(4-Ethylpiperazin-1-yl)-3-[4-(N-Propylcarbamoyl)-3-Fluorophenyl]Isoquinoline Dihydrochloride] | 0.1 nM | 27.3 nM |
| CCN1CCN(c2nc(-c3ccc(CCO)c(F)c3)cc3ccccc23)CC1 [Example 385, 1-(4-Ethylpiperazin-1-yl)-3-[3-Fluoro-4-(2-Hydroxyethyl)Phenyl]Isoquinoline Dihydrochloride] | 21.6 nM | 14.8 nM |
| CCN1CCN(c2nc(-c3ccc(CC(C)CO)cc3)cc3ccccc23)CC1 (stereo not drawn) [Example 386, 1-(4-Ethylpiperazin-1-yl)-3-[4-(3-Hydroxy-2-Methylpropyl)Phenyl]Isoquinoline Oxalate] | 2.4 nM | 8.9 nM |
| CCN1CCN(c2nc(-c3ccc(C(O)CO)cc3)cc3ccccc23)CC1 (stereo not drawn) [Example 387, 1-(4-Ethylpiperazin-1-yl)-3-[4-(1,2-Dihydroxyethyl)Phenyl]Isoquinoline Dihydrochloride] | 24.7 nM | 25.1 nM |
| CCN1CCN(c2nc(-c3ccc(CCC(C)(C)O)cc3)cc3ccccc23)CC1 [Example 388, 1-(4-Ethylpiperazin-1-yl)-3-[4-(3-Hydroxy-3-Methylbutyl)Phenyl]Isoquinoline Dihydrochloride] | 0.7 nM | 21.5 nM |
| CCN1CCN(c2nc(-c3ccc(CC(C)(C)CO)cc3)cc3ccccc23)CC1 [Example 389, 1-(4-Ethylpiperazin-1-yl)-3-[4-(3-Hydroxy-2,2-Dimethylpropyl)Phenyl]Isoquinoline Oxalate] | 7.3 nM | 14.2 nM |
| CCN1CCN(c2nc(-c3ccc(C(C)(C)CCO)cc3)cc3ccccc23)CC1 [Example 390, Oxalate] | 11.1 nM | 7.5 nM |
| CCN1CCN(c2nc(-c3ccc(C(O)C(C)(C)CO)cc3)cc3ccccc23)CC1 (stereo not drawn) [Example 391, 1-(4-Ethylpiperazin-1-yl)-3-[4-(1,3-Dihydroxy-2,2-Dimethylpropyl)Phenyl]Isoquinoline Dihydrochloride] | 12.8 nM | 3.6 nM |
| CCN1CCN(c2nc(-c3ccc(CO)c(CO)c3)cc3ccccc23)CC1 [Example 394, 1-(4-Ethylpiperazin-1-yl)-3-[(3,4-Dihydroxymethyl)Phenyl]Isoquinoline Dihydrochloride] | 32.9 nM | 10.7 nM |
| CCN1CCN(c2nc(-c3ccc(C4COCCO4)cc3)cc3ccccc23)CC1 (stereo not drawn) [Example 395, 1-(4-Ethylpiperazin-1-yl)-3-[4-(1,4-Dioxan-2-yl)Phenyl]Isoquinoline Dihydrochloride] | 4.8 nM | 37.3 nM |
| CCN1CCN(c2nc(-c3ccc(C4CCCO4)cc3)cc3ccccc23)CC1 (stereo not drawn) [Example 396, 1-(4-Ethylpiperazin-1-yl)-3-[4-(Tetrahydrofuran-2-yl)Phenyl]Isoquinoline Dihydrochloride] | 2.6 nM | 50.4 nM |

| Structure (SMILES) | Ki (serotonin 2 receptor) | Ki (serotonin 1A receptor) |
| --- | --- | --- |
| CCN1CCN(c2nc(-c3ccc([C@H]4CC[C@@H](O)CC4)cc3)cc3ccccc23)CC1 [Example 397, 1-(4-Ethylpiperazin-1-yl)-3-[4-(cis-4-Hydroxycyclohexyl)Phenyl]Isoquinoline Dihydrochloride] | 0.9 nM | 53.3 nM |
| CCN1CCN(c2nc(-c3ccc([C@H]4CC[C@H](O)CC4)cc3)cc3ccccc23)CC1 [Example 398, 1-(4-Ethylpiperazin-1-yl)-3-[4-(trans-4-Hydroxycyclohexyl)Phenyl]Isoquinoline Dihydrochloride] | 5.9 nM | 8 nM |
| CCN1CCN(c2nc(-c3ccc(CC4CCOCC4)cc3)cc3ccccc23)CC1 [Example 399, 1-(4-Ethylpiperazin-1-yl)-3-[4-(tetrahydropyran-4-yl)Methylphenyl]Isoquinoline Dihydrochloride] | 17.2 nM | 53 nM |
| CCN1CCN(c2nc(-c3ccc(OC[C@@H](C)O)cc3)cc3ccccc23)CC1 [Example 403, 1-(4-ethylpiperazin-1-yl)-3-[4-(2-hydroxypropoxy)phenyl]isoquinoline Dihydrochloride] | 0.78 nM | 28.4 nM |
| CCN1CCN(c2nc(-c3ccc(O[C@@H](C)CO)cc3)cc3ccccc23)CC1 [Example 404, 1-(4-ethylpiperazin-1-yl)-3-[4-(2-hydroxy-1-methylethoxy)phenyl]isoquinoline Dihydrochloride] | 1.07 nM | 18.8 nM |
| CCN1CCN(c2nc(-c3ccnc(OC)c3)cc3ccccc23)CC1 [Example 405, 1-(4-ethylpiperazin-1-yl)-3-(2-methoxypyridin-4-yl)isoquinoline] | 10.2 nM | 22.6 nM |
| CCN1CCN(c2nc(-c3ccnc(OCCOC)c3)cc3ccccc23)CC1 [Example 407, 1-(4-ethylpiperazin-1-yl)-3-[2-(2-methoxyethoxy)pyridin-4-yl]isoquinoline] | 26.1 nM | 17.8 nM |
| CCN1CCN(c2nc(-c3ccc(C(N)=O)cc3)cc3ccccc23)CC1 [Example 408, 1-(4-ethylpiperazin-1-yl)-3-(4-carbamoylphenyl)isoquinoline] | 36.3 nM | 19.8 nM |
| CCN1CCN(c2nc(-c3ccc(C(O)C4CCCCC4)cc3)cc3ccccc23)CC1 (stereo not drawn) [Example 409, 1-(4-ethylpiperazin-1-yl)-3-[4-(cyclohexylhydroxymethyl)phenyl]isoquinoline] | 9.7 nM | 16.4 nM |
| CCN1CCN(c2nc(-c3ccc(C4(O)CCOCC4)cc3)cc3ccccc23)CC1 [Example 410, 1-(4-ethylpiperazin-1-yl)-3-[4-(4-hydroxytetrahydropyran-4-yl)phenyl]isoquinoline] | 2.1 nM | 21.1 nM |
| CCN1CCN(c2nc(-c3ccc(C(O)c4nccs4)cc3)cc3ccccc23)CC1 (stereo not drawn) [Example 412, 1-(4-ethylpiperazin-1-yl)-3-[4-(1,3-thiazol-2-yl)hydroxymethylphenyl]isoquinoline] | 41.4 nM | 19.1 nM |
| CCN1CCN(c2nc(-c3ccc4c(c3)CCC4=O)cc3ccccc23)CC1 [Example 414, 1-(4-ethylpiperazin-1-yl)-3-(1-indanon-5-yl)isoquinoline] | 4.2 nM | 17.3 nM |
| CCN1CCN(c2nc(-c3ccc4c(c3)CCC4O)cc3ccccc23)CC1 (stereo not drawn) [Example 415, 1-(4-ethylpiperazin-1-yl)-3-(1-hydroxyindan-5-yl)isoquinoline] | 11.6 nM | 3.6 nM |
| CCN1CCN(c2nc(-c3ccc(OCCO)c(C#N)c3)cc3ccccc23)CC1 [Example 417, 1-(4-ethylpiperazin-1-yl)-3-[3-cyano-4-(2-hydroxyethoxy)phenyl]isoquinoline] | 4.5 nM | 13.4 nM |
| CCN1CCN(c2nc(-c3cccc(CCCO)c3)cc3ccccc23)CC1 [Example 418, 1-(4-ethylpiperazin-1-yl)-3-[3-(3-hydroxypropyl)phenyl]isoquinoline] | 17.4 nM | 54.5 nM |
| CCN1CCN(c2nc(Cc3ccccc3)cc3ccccc23)CC1 [Example 419, 1-(4-ethylpiperazin-1-yl)-3-benzylisoquinoline] | 16.4 nM | 94.8 nM |
| CCN1CCN(c2nc(CC(O)c3ccccc3)cc3ccccc23)CC1 (stereo not drawn) [Example 420, 1-(4-ethylpiperazin-1-yl)-3-(2-hydroxy-2-phenylethyl)isoquinoline] | 22.4 nM | 117 nM |
| CCN1CCN(c2nc(NC(=O)c3ccccc3)cc3ccccc23)CC1 [Example 421, 3-benzamide-1-(4-ethylpiperazin-1-yl)isoquinoline] | 129 nM | 9.47 nM |
